Assay results as given in paper PMC10743905, “Design, Synthesis, and In Vitro and In Vivo Bioactivity Studies of Hydrazide–Hydrazones of 2,4-Dihydroxybenzoic Acid” (International Journal of Molecular Sciences, 2023).
Converted amounts (≈) assume the structure as drawn. Where two headings read alike, the source gives them in different places.

Assays:
[1] = test system: Candida parapsilosis ATCC 22019; experiment: Broth microdilution MIC/MFC; type: cell-based
Text: (§1) In vitro antimicrobial activity assays - Methodology
(§2) The examined compounds 1 - 24 were screened in vitro for antibacterial and antifungal activities using the broth microdilution method according to procedure reported earlier by our research group and European Committee on Antimicrobial Susceptibility Testing (EUCAST) and Clinical and Laboratory Standards Institute (CLSI) guidelines against a panel of reference and clinical or saprophytic strains of microorganisms, in-cluding Gram-positive bacteria, Staphylococcus aureus ATCC 43300 (Methicillin Resistant S. aureus – MRSA), Staphylococcus aureus ATCC 29213 (Methicillin Susceptible S. aureus – MSSA), Staphylococcus epidermidis ATCC 12228, Enterococcus faecalis ATCC 29212, Micro-coccus luteus ATCC 10240, Bacillus subtilis ATCC 6633 and Bacillus cereus ATCC 10876), Gram-negative bacteria (Bordetella bronchiseptica ATCC 4617, Escherichia coli ATCC 25922, Klebsiella pneumoniae ATCC 13883, Proteus mirabilis ATCC 12453, Salmonella typhimurium ATCC 14028 and Pseudomonas aeruginosa ATCC 9027) and fungi belonging to yeasts (Can-dida albicans ATCC 10231, Candida albicans ATCC 2091, Candida parapsilosis ATCC 22019, Candida glabrata ATCC 90030 and Candida krusei ATCC 14243). The microorganisms be-longing to ATCC came from American Type Culture Collection, routinely used for the evaluation of antimicrobials. All the used microbial cultures were first subcultured on nu-trient agar or Sabouraud agar at 35°C for 18-24 h or 30°C for 24-48 h for bacteria and fungi, […]
(§3) The surface of Mueller-Hinton agar (for bacteria) and RPMI 1640 with MOPS (for fungi) were inoculated with the suspensions of bacterial or fungal species. Microbial suspensions were prepared in sterile saline with an optical density of McFarland standard scale 0.5.
(§4) Samples containing examined compounds were dissolved in dimethyl sulfoxide (DMSO).
(§5) Furthermore, bacterial and fungal suspensions were put onto Petri dishes with solid me-dia containing 2 mg/mL of the tested compounds followed incubation at 37°C for 24h and 30°C for 48h for bacteria and fungi, respectively. The inhibition of microbial growth was judged by comparison with a control culture prepared without any sample tested. Ciprof-loxacin, vancomycin, nitrofurantoin, cefuroxime, ampicillin or nystatin (Sigma) were used as a reference antibacterial or antifungal compounds, respectively.
(§6) Subsequently, the MIC (Minimal Inhibitory Concentration) of the compounds was ex-amined by the microdilution broth method, using their two-fold dilutions in Mueller- […]
(§7) Hinton broth or (for bacteria) and RPMI 1640 broth with MOPS (for fungi) prepared in 96-well polystyrene plates. Final concentrations of the compounds ranged from 1000 to 0.488 µg/ml. Microbial suspensions were prepared in 0.85% NaCl with an optical density of 0.5 McFarland standard. Next each bacterial or fungal suspension was added per each well containing broth and various concentrations of the examined compounds. After incuba-

[2] = test system: Candida albicans ATCC 2091; experiment: Broth microdilution MIC/MFC; type: cell-based
Text: as §1, §2, §3, §4, §5, §6, §7

[3] = test system: Candida glabrata ATCC 90030; experiment: Broth microdilution MIC/MFC; type: cell-based
Text: as §1, §2, §3, §4, §5, §6, §7

[4] = test system: Candida albicans ATCC 10231; experiment: Broth microdilution MIC/MFC; type: cell-based
Text: as §1, §2, §3, §4, §5, §6, §7

[5] = test system: Candida krusei ATCC 14243; experiment: Broth microdilution MIC/MFC; type: cell-based
Text: as §1, §2, §3, §4, §5, §6, §7

[6] = test system: Staphylococcus aureus ATCC 29213; experiment: Broth microdilution MIC/MBC; type: cell-based; details: for MBC / MIC: ATCC29213
Text: as §1
as §2, with “antimicrobials.” for “antimicrobials. All the used microbial cultures were first subcultured on nu-trient agar or Sabouraud agar at 35°C for 18-24 h or 30°C for 24-48 h for bacteria and fungi,”
(§8) Samples containing examined compounds were dissolved in dimethyl sulfoxide (DMSO). […]
as §6, §7

[7] = test system: Staphylococcus aureus ATCC 43300; experiment: Broth microdilution MIC/MBC; type: cell-based; details: Staphylococcus aureus ATCC 43300 (MRSA)
Text: as §1
as §2, with “antimicrobials.” for “antimicrobials. All the used microbial cultures were first subcultured on nu-trient agar or Sabouraud agar at 35°C for 18-24 h or 30°C for 24-48 h for bacteria and fungi,”
as §8, §6, §7

[8] = test system: Salmonella typhimurium ATCC 14028; experiment: Broth microdilution MIC/MBC; type: cell-based; details: Salmonella enterica
Text: as §1
as §2, with “antimicrobials.” for “antimicrobials. All the used microbial cultures were first subcultured on nu-trient agar or Sabouraud agar at 35°C for 18-24 h or 30°C for 24-48 h for bacteria and fungi,”
as §8, §6, §7

[9] = test system: Proteus mirabilis ATCC 12453; experiment: Broth microdilution MIC/MBC; type: cell-based; details: ATCC12453
Text: as §1
as §2, with “antimicrobials.” for “antimicrobials. All the used microbial cultures were first subcultured on nu-trient agar or Sabouraud agar at 35°C for 18-24 h or 30°C for 24-48 h for bacteria and fungi,”
as §8, §6, §7

[10] = test system: Staphylococcus epidermidis ATCC 12228; experiment: Broth microdilution MIC/MBC; type: cell-based; details: for MBC: ATCC12228; for MIC: ATCC12228, read-out: MIC
Text: as §1
as §2, with “antimicrobials.” for “antimicrobials. All the used microbial cultures were first subcultured on nu-trient agar or Sabouraud agar at 35°C for 18-24 h or 30°C for 24-48 h for bacteria and fungi,”
as §8, §6, §7

[11] = test system: Micrococcus luteus ATCC 10240; experiment: Broth microdilution MIC/MBC; type: cell-based; details: for MBC: ATCC10240
Text: as §1
as §2, with “antimicrobials.” for “antimicrobials. All the used microbial cultures were first subcultured on nu-trient agar or Sabouraud agar at 35°C for 18-24 h or 30°C for 24-48 h for bacteria and fungi,”
as §8, §6, §7

[12] = test system: Pseudomonas aeruginosa ATCC 9027; experiment: Broth microdilution MIC/MBC; type: cell-based; details: ATCC9027
Text: as §1
as §2, with “antimicrobials.” for “antimicrobials. All the used microbial cultures were first subcultured on nu-trient agar or Sabouraud agar at 35°C for 18-24 h or 30°C for 24-48 h for bacteria and fungi,”
as §8, §6, §7

[13] = test system: Bacillus subtilis ATCC 6633; experiment: Broth microdilution MIC/MBC; type: cell-based
Text: Detailed procedures are presented in the Supplementary Materials. […]
as §1, §2, §3, §4, §5, §6, §7

[14] = test system: Bacillus cereus ATCC 10876; experiment: Broth microdilution MIC/MBC; type: cell-based; details: for MBC: ATCC10876
Text: as §1, §2, §3, §4, §5, §6, §7

[15] = test system: Bordetella bronchiseptica ATCC 4617; experiment: Broth microdilution MIC/MBC; type: cell-based; details: ATCC4617
Text: as §1, §2, §3, §4, §5, §6, §7

[16] = test system: Klebsiella pneumoniae ATCC 13883; experiment: Broth microdilution MIC/MBC; type: cell-based; details: ATCC13883
Text: as §1, §2, §3, §4, §5, §6, §7

[17] = test system: Enterococcus faecalis ATCC 29212; experiment: Broth microdilution MIC/MBC; type: cell-based; details: ATCC29212, read-out: MIC
Text: as §1, §2, §3, §4, §5, §6, §7

[18] = test system: Escherichia coli ATCC 25922; experiment: Broth microdilution MIC/MBC; type: cell-based; details: ATCC25922
Text: as §1, §2, §3, §4, §5, §6, §7

[19] = Lodderomyces parapsilosis, ATCC22019, read-out: MIC
[20] = Nakaseomyces glabratus, ATCC90030, read-out: MIC
[21] = Pichia kudriavzevii, ATCC14243, read-out: MIC

Row | MIC [10] | MIC ([11]; ATCC10240, read-out: MIC) | MIC ([13]; ATCC6633, read-out: MIC) | MIC ([14]; ATCC10876, read-out: MIC) | SMILES | MIC [1, 19] | MFC/MIC [2] | MFC ([2]; ATCC2091, read-out: MFC) | MIC ([2]; ATCC2091, read-out: MIC) | MIC [3, 20] | MFC/MIC [4] | MFC ([4]; ATCC10231, read-out: MFC) | MIC ([4]; ATCC10231, read-out: MIC) | MIC [5, 21] | melting point | MBC/MIC [6] | MBC [6] | MIC [6] | MIC [7] | MIC [8] | MIC [9] | also measured
1 | 1000 µg/mL (≈ 3.18 mM) | 1000 µg/mL (≈ 3.18 mM) | 1000 µg/mL (≈ 3.18 mM) | 1000 µg/mL (≈ 3.18 mM) | CCCOc1ccc(/C=N/NC(=O)c2ccc(O)cc2O)cc1 [Compound 6, 2,4-dihydroxy-N-[(4-propoxyphenyl)methylidene]benzohydrazide] | 1000 µg/mL (≈ 3.18 mM) | > 2 | > 1000 µg/mL | 500 µg/mL (≈ 1.59 mM) | > 1000 µg/mL | > 1 | > 1000 µg/mL | 1000 µg/mL (≈ 3.18 mM) | > 1000 µg/mL | 251 °C | > 1 | > 1000 µg/mL | 1000 µg/mL (≈ 3.18 mM) | 1000 µg/mL (≈ 3.18 mM) | > 1000 µg/mL | > 1000 µg/mL | MFC/MIC [1]: > 1; MFC ([1]; Lodderomyces parapsilosis, ATCC22019, read-out: MFC): > 1000 µg/mL; MBC [7]: > 1000 µg/mL; MBC/MIC [7]: > 1; MBC/MIC [10]: > 1; MBC [10]: > 1000 µg/mL; MBC/MIC [11]: > 1; MBC [11]: > 1000 µg/mL; MIC [12]: > 1000 µg/mL; MBC/MIC [13]: > 1; MBC ([13]; ATCC6633): > 1000 µg/mL; MBC/MIC [14]: > 1; MBC [14]: > 1000 µg/mL; MIC [15]: > 1000 µg/mL; MIC [16]: > 1000 µg/mL; MIC [17]: > 1000 µg/mL; MIC [18]: > 1000 µg/mL
2 | – | – | – | – | C[C@@H]1[C@H](O)[C@@H](C)/C=C/C=C/CC/C=C/C=C/C=C/C=C/C(O[C@H]2O[C@H](C)[C@@H](O)[C@H](N)[C@@H]2O)CC2O[C@](O)(CC(O)C(O)CCC(O)CC(O)CC(O)CC(=O)O[C@H]1C)CC(O)C2C(=O)O (stereo partly drawn) [NY, nystatin, reference compound] | – | 1 | – | – | – | 1 | – | – | – | – | – | – | – | – | – | – | MFC [1]: 0.48 µg/mL (≈ 0.000518 mM); MFC/MIC [1]: 2; MIC [1]: 0.24 µg/mL (≈ 0.000259 mM); MFC [2]: 0.24 µg/mL (≈ 0.000259 mM); MIC [2]: 0.24 µg/mL (≈ 0.000259 mM); MFC [3]: 0.48 µg/mL (≈ 0.000518 mM); MFC/MIC [3]: 2; MIC [3]: 0.24 µg/mL (≈ 0.000259 mM); MFC [4]: 0.48 µg/mL (≈ 0.000518 mM); MIC [4]: 0.48 µg/mL (≈ 0.000518 mM); MFC [5]: 0.24 µg/mL (≈ 0.000259 mM); MFC/MIC [5]: 1; MIC [5]: 0.24 µg/mL (≈ 0.000259 mM)
3 | 0.24 µg/mL (≈ 0.000566 mM) | 0.98 µg/mL (≈ 0.00231 mM) | 15.6 µg/mL (≈ 0.0368 mM) | 31.2 µg/mL (≈ 0.0736 mM) | CO/N=C(\C(=O)N[C@@H]1C(=O)N2C(C(=O)O)=C(COC(N)=O)CS[C@H]12)c1ccco1 [CFX, cefuroxime, reference compound] | – | – | – | – | – | – | – | – | – | – | – | – | – | – | – | – | MIC [11]: 0.98 µg/mL (≈ 0.00231 mM); MIC [13]: 15.62 µg/mL (≈ 0.0368 mM); MIC [14]: 31.25 µg/mL (≈ 0.0736 mM)

Row | SMILES | MIC [10] | MIC ([11]; ATCC10240, read-out: MIC) | MIC ([13]; ATCC6633, read-out: MIC) | MIC ([14]; ATCC10876, read-out: MIC) | MIC [1, 19] | MFC/MIC [2] | MFC ([2]; ATCC2091, read-out: MFC) | MIC ([2]; ATCC2091, read-out: MIC) | MIC [3, 20] | MFC/MIC [4] | MFC ([4]; ATCC10231, read-out: MFC) | MIC ([4]; ATCC10231, read-out: MIC) | MIC [5, 21] | melting point | MBC/MIC [6] | MBC [6] | MIC [6] | MIC [7] | MIC [8] | MIC [9] | also measured
4 | CCCCOc1ccc(/C=N/NC(=O)c2ccc(O)cc2O)cc1 [Compound 7, N-[(4-butoxyphenyl)methylidene]-2,4-dihydroxybenzohydrazide] | 500 µg/mL (≈ 1.52 mM) | 1000 µg/mL (≈ 3.05 mM) | > 1000 µg/mL | 1000 µg/mL (≈ 3.05 mM) | > 1000 µg/mL | > 2 | > 1000 µg/mL | 500 µg/mL (≈ 1.52 mM) | > 1000 µg/mL | > 1 | > 1000 µg/mL | 1000 µg/mL (≈ 3.05 mM) | > 1000 µg/mL | 246 °C | > 1 | > 1000 µg/mL | 1000 µg/mL (≈ 3.05 mM) | > 1000 µg/mL | > 1000 µg/mL | > 1000 µg/mL | MBC/MIC [10]: 2; MBC [10]: 1000 µg/mL (≈ 3.05 mM); MBC/MIC [11]: > 1; MBC [11]: > 1000 µg/mL; MIC [12]: > 1000 µg/mL; MBC/MIC [14]: > 1; MBC [14]: > 1000 µg/mL; MIC [15]: > 1000 µg/mL; MIC [16]: > 1000 µg/mL; MIC [17]: > 1000 µg/mL; MIC [18]: > 1000 µg/mL
